In US4386093A (The United States of America as represented by the …, priority 1981, dated 1983):
Read-outs that look alike come from different tables or passages of the source.

What was measured:
[1] = tested on: S-adenosylhomocysteine hydrolase
herpes simplex type I = assay: Herpes I plaque formation in mouse L cells; format: cell-based; conditions: 72 h, day 3
HL-23 C type virus [2] = assay: HL-23 foci formation (oncogenic transformation) in normal rat kidney cells; format: cell-based; conditions: NRK 153 Cl 7 cells, day 5
[3] = Cell number in HL-23 virus production assay; format: cell-based; conditions: rat, nrkb/hl23 cells, read-out: % Control Cell Number
[4] = Cell number in HL-23 foci formation assay; format: cell-based; conditions: rat, nrk 153 cl 7 cells, read-out: % Control Cell Number
poliovirus = format: cell-based
HL-23 C type virus [5] = assay: HL-23 virus production in NRKB/HL23 cells; format: cell-based; conditions: HL2/3, 72 h
Procedure: on day 3; virus production by HL23 was measured with NRKB/HL23 cells on
day 3; oncogenic transformation by HL23 was assayed by infecting normal

[6] = 1 μM; vaccinia assay
vaccinia virus = assay: microbe, parasite or virus in culture; format: cell-based
adenosine kinase = assay: Phosphorylation by adenosine kinase; format: biochemical
[7] = tested on: neutrophilis or macrophage cell lines
[8] = Cell number in herpes I plaque assay; format: cell-based; conditions: mouse L cells
[9] = tested on: calf intestinal deaminase; assay: Deamination by calf intestinal deaminase; format: biochemical
in vitro = conditions: vaccinia assay host cells
[10] = read-out: Ki, S-adenosylhomocysteine hydrolase
[11] = listed as (±)3-Deazaaristeromycin

Nc1nccc2c1ncn2[C@@H]1C[C@H](CO)[C@@H](O)[C@H]1O (relative stereo) [(±)3-deazaaristeromycin, (±)-4-amino-1-[(1α, 2β, 3β, 4α)-2,3-dihydroxy-4-(hydroxymethyl)-cyclopentyl]imidazo[4,5-c]pyridine]
Irreversible inhibition of the enzyme [1]: negligible or very little irreversible inhibition | Ki ([1]; read-out: Ki, AdoHcy hydrolase): 3 µM | Ki [1, 10]: 3 µM | inhibition at 10 µM (herpes simplex type I; 10 uM): 60% | inhibition at 20 µM (herpes simplex type I; 20 uM): 97% | inhibition at 30 µM (herpes simplex type I; 30 uM): > 99% | inhibition at 40 µM (herpes simplex type I; 40 uM): 99.3% | inhibition at 50 µM (herpes simplex type I; 50 uM): 99.3% | inhibition at 60 µM (herpes simplex type I; 60 uM): 100% | inhibition at 70 µM (herpes simplex type I; 70 uM): 100% | % Inhibition, HL-23 foci formation (HL-23 C type virus [2]; 2.00 uM, 2 µM): 92% | inhibition at 0.25 µM (HL-23 C type virus [2]; HL2/3, 120 h, 0.25 uM): 44% | inhibition at 0.5 µM (HL-23 C type virus [2]; HL2/3, 120 h, 0.50 uM): 44% | inhibition at 1 µM (HL-23 C type virus [2]; HL2/3, 120 h, 1.00 uM): 76% | inhibition at 2 µM (HL-23 C type virus [2]; HL2/3, 120 h, 2.00 uM): ~96% | inhibition at 4 µM (HL-23 C type virus [2]; HL2/3, 120 h, 4.00 uM): 99% | activity at 72 h, 0.25 µM ([3]; 0.25 uM): 100% | activity at 72 h, 0.5 µM ([3]; 0.50 uM): 88% | activity at 72 h, 1 µM ([3]; 1.00 uM): 75% | activity at 120 h, 0.25 µM ([4]; 0.25 uM): 100% | activity at 120 h, 0.5 µM ([4]; 0.50 uM): 96% | activity at 120 h, 1 µM ([4]; 1.00 uM): 81% | activity at 120 h, 2 µM ([4]; 2.00 uM): 71% | activity at 120 h, 4 µM ([4]; 4.00 uM): 53% | Inhibition of replication of poliovirus (poliovirus): fail to inhibit | inhibition at 0.25 µM (HL-23 C type virus [5]; 0.25 uM, day 3): 68% | inhibition at 1 µM (HL-23 C type virus [5]; 1.00 uM, day 3): 86% | inhibition at 0.5 µM (HL-23 C type virus [5]; read-out: % Inhibition, HL-23 virus production, 0.50 uM, day 3): > 85% | cytotoxicity [6]: without any cytotoxicity | % Inhibition, Vaccinia plaque formation (vaccinia virus; 1.0 uM): 99.2% | inhibition at 0.5 µM (vaccinia virus; Orthopoxvirus vaccinia, read-out: % Inhibition, Vaccinia plaque formation, 0.5 uM): 84% | inhibition at 1 µM (vaccinia virus; Orthopoxvirus vaccinia, read-out: % Inhibition, Vaccinia plaque formation, 1.0 uM): > 99% | inhibition at 2 µM (vaccinia virus; Orthopoxvirus vaccinia, read-out: % Inhibition, Vaccinia plaque formation, 2.0 uM): 99.6% | inhibition at 4 µM (vaccinia virus; Orthopoxvirus vaccinia, read-out: % Inhibition, Vaccinia plaque formation, 4.0 uM): 99.8% | Phosphorylation (adenosine kinase; listed as 3-Deaza-Ari): not phosphorylated | Phosphorylation (adenosine kinase; [11]): not subject to deamination or phosphorylation | Inhibition of chemotaxis [7]: does not inhibit | activity at 72 h, 10 µM ([8]; 10 uM, read-out: % Control Cell Number): 100% | activity at 72 h, 20 µM ([8]; 20 uM, read-out: % Control Cell Number): 95% | activity at 72 h, 30 µM ([8]; 30 uM, read-out: % Control Cell Number): 95% | activity at 72 h, 40 µM ([8]; 40 uM, read-out: % Control Cell Number): 91% | activity at 72 h, 50 µM ([8]; 50 uM, read-out: % Control Cell Number): 95% | activity at 72 h, 60 µM ([8]; 60 uM, read-out: % Control Cell Number): 91% | activity at 72 h, 70 µM ([8]; 70 uM, read-out: % Control Cell Number): 82% | cytotoxicity ([8]; 20-30 μM, read-out: Reduction in the cell number (cytotoxicity)): ≤ 5% | Deamination ([9]; listed as 3-Deaza-Ari): not deaminated | Deamination [9, 11]: not subject to deamination or phosphorylation | activity at 0.5 µM (in vitro): 120% | activity at 1 µM (in vitro): 144% | activity at 2 µM (in vitro): 111% | activity at 4 µM (in vitro): 111%

Nc1ncnc2c1ncn2[C@@H]1C[C@H](CO)[C@@H](O)[C@H]1O (relative stereo) [(±)aristeromycin, reference compound]
Ki [1, 10]: 0.001 µM

Nc1nccc2c1ncn2[C@@H]1O[C@H](CO)[C@@H](O)[C@H]1O [3-deazaadenosine, reference compound]
Inhibition of replication of poliovirus (poliovirus): fail to inhibit
